Data reported in US5252749A, “Ethers of thienocyclopentanone oximes, their preparation and pharmaceutical compositions containing them” (Elf Sanofi, priority 1991, dated 1993).

Key:
5HT3 receptors = settings: rats, Bezold-Jarisch reflex; compounds studied in J. Pharm. Pharmacol. 40, 301-302 (1988); cited from earlier work
5HT1A receptor = settings: Headache 29, 420-422, July 1989; cited from earlier work
5HT1D receptors = target: T1, 5HT1D receptors (Bos taurus, UniProt F1MGM3); assay: Displacement of tritiated serotonin from 5HT1D receptors on membrane preparations of bovine caudate nuclei; settings: bovine caudate nuclei membranes, in vitro, read-out: concentration which inhibits 50% of the binding of the tritiated compound (IC50)
T1 construct: membrane preparations of bovine caudate nuclei; from tissue; host or cells: bovine caudate nuclei, membrane preparation

5HT1D receptor = settings: Headache 29, 420-422, July 1989; cited from earlier work
[1] = in man; cited from earlier work

T1 sequence (F1MGM3 1-403): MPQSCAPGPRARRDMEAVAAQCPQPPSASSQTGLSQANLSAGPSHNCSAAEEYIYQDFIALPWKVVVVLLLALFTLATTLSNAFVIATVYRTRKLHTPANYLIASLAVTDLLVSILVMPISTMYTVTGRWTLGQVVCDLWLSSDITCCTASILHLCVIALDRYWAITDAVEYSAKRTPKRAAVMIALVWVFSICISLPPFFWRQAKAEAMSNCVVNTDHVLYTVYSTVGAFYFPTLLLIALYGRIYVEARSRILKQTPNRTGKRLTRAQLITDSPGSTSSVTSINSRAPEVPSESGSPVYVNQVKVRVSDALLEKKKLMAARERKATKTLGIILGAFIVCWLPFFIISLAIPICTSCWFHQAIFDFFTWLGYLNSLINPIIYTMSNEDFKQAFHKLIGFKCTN

| SMILES | dose which inhibits 50% of the serotonin activity (ID50) (5HT3 receptors) | agonist activity at the 5HT1A receptor (5HT1A receptor) | IC50 (5HT1D receptors) [nM] | agonist activity at the 5HT1D receptor (5HT1D receptor) | antimigraine activity [1] |
| --- | --- | --- | --- | --- | --- |
| CN1[C@@H]2CC[C@H]1CC(OC(=O)c1c[nH]c3ccccc13)C2 (stereo partly shown) [ICS 205-930] | approximately 1 μg/kg |  |  |  |  |
| CCN(CC)CCNC(=O)c1cc(Cl)c(N)cc1OC [metoclopramide] | ~0.4 mg/kg |  |  |  |  |
| CNS(=O)(=O)Cc1ccc2[nH]cc(CCN(C)C)c2c1 [sumatriptan] |  | weak agonist of the 5HT1A receptor | ~100 | powerful agonist of the 5HT1D receptor | marked antimigraine activity in man |
| COc1cc(N)c(Cl)cc1C(=O)NC1CN2CCC1CC2 (stereo not shown) [zacopride] | ~0.00025 mg/kg |  |  |  |  |
